Here are results for 41 compounds from patent US20020026053A1, “Novel 3-(substituted) -2- indolinones compounds and use thereof as inhibitors of protein kinase activity” (priority 1997, published 2002).

For one assay, the system named is FLK-1 receptor. Kind of assay: FLK-1 Assay (cellular/catalytic ELISA, VEGF-stimulated phosphotyrosine). Type of assay: cell-based. Details: concentration or dose not given beside the values. Particulars: protocol P.110. The method, boiled down: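 Receptor phosphotyrosine ELISA: Flk-1-expressing NIH3T3 C7#3 cells, starved overnight in 0.1% FBS medium, received compound (1:200 final dilution, 0.5% DMSO) for 2 h at 37 °C, then VEGF. Anti-FLK-1-captured receptor was probed with anti-phosphotyrosine UB40 and peroxidase/ABTS read-out, relative to cells without compound.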
On the technique in general: An ELISA detects its analyte on a solid surface through an enzyme-linked reagent.

The subject of another assay is PDGF-R. Put plainly: PDGF-R Assay (cellular ELISA, U1242 cells). Format: cell-based. Details: concentration or dose not given beside the values. Particulars: protocol P.119. The method, boiled down:
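Cellular ELISA for receptor autophosphorylation: after 2 hr test-compound treatment of serum-free U1242 cells at 37°C, ligand is added for 5–10 min, cells are lysed (HNTG) and receptor captured by specific antibody. Anti-phosphotyrosine plus secondary antibody with ABTS colour read at 410/630 nm, compared with compound-free control cells.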

Take `Cc1c(Br)cc(Br)c2c1C(=Cc1cc(O)cc(O)c1)C(=O)N2` [10738/H07]: the “Flk Kinase % Inhibition (P.110)” value in the assay with FLK-1 receptor is −17.4%. On to `Cc1c(Br)cc(Br)c2c1C(=Cc1ccc(Cl)c(Cl)c1)C(=O)N2` [10738/H08], for which the “Flk Kinase % Inhibition (P.110)” value in the assay on FLK-1 receptor is given as −12.7%. Take `COc1ccccc1C=C1C(=O)Nc2c(Br)cc(Br)c(C)c21` [10738/H09]: the “Flk Kinase % Inhibition (P.110)” value with FLK-1 receptor was −6.5%. Turning to `Cc1c(Br)cc(Br)c2c1C(=Cc1ccc(C(C)C)cc1)C(=O)N2` [10738/H10], the “Flk Kinase % Inhibition (P.110)” value in the assay with FLK-1 receptor worked out at 1.7%.

On to `CCCOc1ccc(C=C2C(=O)Nc3c(Br)cc(Br)c(C)c32)cc1` [10738/H11], for which the “Flk Kinase % Inhibition (P.110)” value with FLK-1 receptor is −4.1%. Turning to `COc1ccc(C=C2C(=O)Nc3c(Br)cc(Br)cc32)cc1C` [10739/A02], the “Flk Kinase % Inhibition (P.110)” value in the assay with FLK-1 receptor was 1.2%. In the assay with PDGF-R, the “PDGF Kinase % Inhibition (P.119)” value was 21.7%. The like results for `O=C1Nc2c(Br)cc(Br)cc2C1=Cc1cccc(OCc2ccccc2)c1` [10739/A03] were, in that order, 2.9% and 15.4%. For `O=C1Nc2c(Br)cc(Br)cc2C1=Cc1ccc(OCc2ccccc2)cc1` [10739/A04], in the assay with FLK-1 receptor, the “Flk Kinase % Inhibition (P.110)” value is reported as −8.2%. Besides, the “PDGF Kinase % Inhibition (P.119)” value in the assay with PDGF-R is reported as 23.2%.

As to `O=C1Nc2c(Br)cc(Br)cc2C1=CC1COc2ccccc2O1` (centres unmarked) [10739/A05], the “Flk Kinase % Inhibition (P.110)” value in the assay with FLK-1 receptor was −11.0%. The “PDGF Kinase % Inhibition (P.119)” value with PDGF-R amounted to 15.9%. For the compound `O=C1Nc2c(Br)cc(Br)cc2C1=Cc1ccc(O)cc1Cl` [10739/A06], the “Flk Kinase % Inhibition (P.110)” value in the assay with FLK-1 receptor is listed as 7.4%. Besides, in the assay on PDGF-R, the “PDGF Kinase % Inhibition (P.119)” value was determined as 17.8%.

Take `O=C1Nc2c(Br)cc(Br)cc2C1=Cc1cc(O)c(O)c(O)c1` [10739/A07]: in the assay on FLK-1 receptor, the “Flk Kinase % Inhibition (P.110)” value stood at 4.1%. Also, the “PDGF Kinase % Inhibition (P.119)” value in the assay with PDGF-R amounted to 34.8%. `COc1ccc(Oc2cccc(C=C3C(=O)Nc4c(Br)cc(Br)cc43)c2)cc1` [10739/A08]: the “Flk Kinase % Inhibition (P.110)” value in the assay with FLK-1 receptor is listed as −25.5%. The “PDGF Kinase % Inhibition (P.119)” value in the assay with PDGF-R came to 3.8%. On to `CN(C)CCCOc1ccc(C=C2C(=O)Nc3c(Br)cc(Br)cc32)cc1` [10739/A09], for which the “Flk Kinase % Inhibition (P.110)” value in the assay with FLK-1 receptor was −9.1%. For the same compound, the “PDGF Kinase % Inhibition (P.119)” value with PDGF-R was −0.6%. The like results for `O=C1Nc2c(Br)cc(Br)cc2C1=Cc1ccoc1` [10739/A10] were, in that order, −2.5% and −1.1%. On to `O=C1Nc2c(Br)cc(Br)cc2C1=Cc1ccc(CO)o1` [10739/A11], for which the “Flk Kinase % Inhibition (P.110)” value in the assay on FLK-1 receptor is listed as 3.9%. The “PDGF Kinase % Inhibition (P.119)” value in the assay on PDGF-R came to 1.8%. For `COc1ccc(C=C2C(=O)Nc3ccc(I)cc32)cc1C` [10739/B02], in the assay on FLK-1 receptor, the “Flk Kinase % Inhibition (P.110)” value was determined as 2.1%. Also, in the assay on PDGF-R, the “PDGF Kinase % Inhibition (P.119)” value is 5.2%. As for `O=C1Nc2ccc(I)cc2C1=Cc1cccc(OCc2ccccc2)c1` [10739/B03], in the assay on FLK-1 receptor, the “Flk Kinase % Inhibition (P.110)” value was determined as 3.5%. Moreover, the “PDGF Kinase % Inhibition (P.119)” value in the assay with PDGF-R turned out to be 1.8%. Consider `O=C1Nc2ccc(I)cc2C1=Cc1ccc(OCc2ccccc2)cc1` [10739/B04], for which the “Flk Kinase % Inhibition (P.110)” value in the assay on FLK-1 receptor is on record as 13.2%. Moreover, in the assay with PDGF-R, the “PDGF Kinase % Inhibition (P.119)” value was 19.8%. Consider `O=C1Nc2ccc(I)cc2C1=CC1COc2ccccc2O1` (centres unmarked) [10739/B05], for which, in the assay with FLK-1 receptor, the “Flk Kinase % Inhibition (P.110)” value was found to be 4.1%. Besides, the “PDGF Kinase % Inhibition (P.119)” value with PDGF-R was 4.7%.

As to `O=C1Nc2ccc(I)cc2C1=Cc1ccc(O)cc1Cl` [10739/B06], the “Flk Kinase % Inhibition (P.110)” value in the assay on FLK-1 receptor was 9.3%. In addition, in the assay with PDGF-R, the “PDGF Kinase % Inhibition (P.119)” value is given as 6.7%. The like results for `O=C1Nc2ccc(I)cc2C1=Cc1cc(O)c(O)c(O)c1` [10739/B07] were, in that order, 1.1% and 19.8%. The like results for `COc1ccc(Oc2cccc(C=C3C(=O)Nc4ccc(I)cc43)c2)cc1` [10739/B08] were, in that order, 6.5% and −0.1%. In the case of `CN(C)CCCOc1ccc(C=C2C(=O)Nc3ccc(I)cc32)cc1` [10739/B09], the “Flk Kinase % Inhibition (P.110)” value in the assay on FLK-1 receptor is listed as −15.4%. Further, the “PDGF Kinase % Inhibition (P.119)” value with PDGF-R is 74.1%. Turning to `O=C1Nc2ccc(I)cc2C1=Cc1ccoc1` [10739/B10], in the assay with FLK-1 receptor, the “Flk Kinase % Inhibition (P.110)” value is −10.1%. For the same compound, the “PDGF Kinase % Inhibition (P.119)” value in the assay with PDGF-R is −16.1%. With `O=C1Nc2ccc(I)cc2C1=Cc1ccc(CO)o1` [10739/B11], the “Flk Kinase % Inhibition (P.110)” value in the assay on FLK-1 receptor stood at 12.5%. Besides, the “PDGF Kinase % Inhibition (P.119)” value in the assay on PDGF-R is recorded as −9.8%. The like results for `COc1ccc(C=C2C(=O)Nc3ccc(Br)c(C)c32)cc1C` [10739/C02] were, in that order, −10.8% and 10.6%. As for `Cc1c(Br)ccc2c1C(=Cc1cccc(OCc3ccccc3)c1)C(=O)N2` [10739/C03], in the assay with FLK-1 receptor, the “Flk Kinase % Inhibition (P.110)” value was 16.4%. Further, in the assay on PDGF-R, the “PDGF Kinase % Inhibition (P.119)” value was 10.1%. As for `Cc1c(Br)ccc2c1C(=Cc1ccc(OCc3ccccc3)cc1)C(=O)N2` [10739/C04], in the assay on FLK-1 receptor, the “Flk Kinase % Inhibition (P.110)” value came out at 21.8%. Moreover, the “PDGF Kinase % Inhibition (P.119)” value with PDGF-R is recorded as 19.3%. Regarding `Cc1c(Br)ccc2c1C(=CC1COc3ccccc3O1)C(=O)N2` (centres unmarked) [10739/C05], the “Flk Kinase % Inhibition (P.110)” value in the assay with FLK-1 receptor is listed as 5.6%. Further, in the assay with PDGF-R, the “PDGF Kinase % Inhibition (P.119)” value amounted to 31.4%.

On to `Cc1c(Br)ccc2c1C(=Cc1ccc(O)cc1Cl)C(=O)N2` [10739/C06], for which the “Flk Kinase % Inhibition (P.110)” value in the assay on FLK-1 receptor was found to be 17.7%. Besides, in the assay with PDGF-R, the “PDGF Kinase % Inhibition (P.119)” value was 33.8%. Consider `Cc1c(Br)ccc2c1C(=Cc1cc(O)c(O)c(O)c1)C(=O)N2` [10739/C07], for which the “Flk Kinase % Inhibition (P.110)” value in the assay with FLK-1 receptor was −14.5%. For the same compound, in the assay on PDGF-R, the “PDGF Kinase % Inhibition (P.119)” value was found to be 44.5%. As to `COc1ccc(Oc2cccc(C=C3C(=O)Nc4ccc(Br)c(C)c43)c2)cc1` [10739/C08], the “Flk Kinase % Inhibition (P.110)” value in the assay on FLK-1 receptor is recorded as 4.8%. Further, the “PDGF Kinase % Inhibition (P.119)” value with PDGF-R is on record as 11.0%. Turning to `Cc1c(Br)ccc2c1C(=Cc1ccc(OCCCN(C)C)cc1)C(=O)N2` [10739/C09], in the assay with FLK-1 receptor, the “Flk Kinase % Inhibition (P.110)” value is reported as 10.0%. In addition, the “PDGF Kinase % Inhibition (P.119)” value in the assay with PDGF-R is 105.6%. As to `Cc1c(Br)ccc2c1C(=Cc1ccoc1)C(=O)N2` [10739/C10], the “Flk Kinase % Inhibition (P.110)” value with FLK-1 receptor is on record as −7.1%. Besides, the “PDGF Kinase % Inhibition (P.119)” value in the assay with PDGF-R is −18.6%. Turning to `Cc1c(Br)ccc2c1C(=Cc1ccc(CO)o1)C(=O)N2` [10739/C11], in the assay with FLK-1 receptor, the “Flk Kinase % Inhibition (P.110)” value stood at 70.6%. For the same compound, the “PDGF Kinase % Inhibition (P.119)” value with PDGF-R is listed as 9.1%.

For `CNS(=O)(=O)c1ccc2c(c1)C(=Cc1ccc(OC)c(C)c1)C(=O)N2` [10739/D02], the “Flk Kinase % Inhibition (P.110)” value in the assay with FLK-1 receptor was 25.6%. Further, the “PDGF Kinase % Inhibition (P.119)” value in the assay with PDGF-R amounted to 17.8%. With `CNS(=O)(=O)c1ccc2c(c1)C(=Cc1cccc(OCc3ccccc3)c1)C(=O)N2` [10739/D03], in the assay with FLK-1 receptor, the “Flk Kinase % Inhibition (P.110)” value was −18.3%. In addition, the “PDGF Kinase % Inhibition (P.119)” value in the assay with PDGF-R was 14.4%.

On to `CNS(=O)(=O)c1ccc2c(c1)C(=Cc1ccc(OCc3ccccc3)cc1)C(=O)N2` [10739/D04], for which the “Flk Kinase % Inhibition (P.110)” value in the assay on FLK-1 receptor is 11.8%. In addition, the “PDGF Kinase % Inhibition (P.119)” value in the assay with PDGF-R amounted to 7.2%. For the compound `CNS(=O)(=O)c1ccc2c(c1)C(=CC1COc3ccccc3O1)C(=O)N2` (centres unmarked) [10739/D05], in the assay with FLK-1 receptor, the “Flk Kinase % Inhibition (P.110)” value worked out at 12.2%. The “PDGF Kinase % Inhibition (P.119)” value in the assay on PDGF-R is on record as −6.9%.

With `CNS(=O)(=O)c1ccc2c(c1)C(=Cc1ccc(O)cc1Cl)C(=O)N2` [10739/D06], the “Flk Kinase % Inhibition (P.110)” value in the assay on FLK-1 receptor is listed as 9.0%. Moreover, the “PDGF Kinase % Inhibition (P.119)” value in the assay with PDGF-R was −43.8%. The like results for `CNS(=O)(=O)c1ccc2c(c1)C(=Cc1cc(O)c(O)c(O)c1)C(=O)N2` [10739/D07] were, in that order, −5.1% and 18.8%.
